Values of other authors as cited in patent publication US9029598B2 (Colgate-Palmolive Company, priority 2009, dated 2015).

Details: room temperature, natural partial pressure (3.5×10^−4 atmosphere)

O=C=O [Carbon dioxide]
maximum concentration of carbon dioxide in water: 12 µM
